Numbering of substitutions follows the chain as printed.
Experiments:
[1] = target: T1, HEK-293 cells expressing a Kif5b-RET fusion protein (Homo sapiens, UniProt P07949); assay: RET Cell Assay (phospho-RET Tyr1062); type: cell-based; conditions: HEK-293 Kif5b-RET, 1 hour incubation, phospho-RET normalized to GAPDH; read-out: KIF5B-RET pTYR1062 Cell IC50
T1 construct: KIF5B (N-terminal portion incl. coiled-coil); expressed in transfected cells; host or cells: HEK-293; the other entry of the earlier key: KIF5B (P33176, Kinesin-1 heavy chain)
T1 sequence (P07949 713-1063 limits assumed): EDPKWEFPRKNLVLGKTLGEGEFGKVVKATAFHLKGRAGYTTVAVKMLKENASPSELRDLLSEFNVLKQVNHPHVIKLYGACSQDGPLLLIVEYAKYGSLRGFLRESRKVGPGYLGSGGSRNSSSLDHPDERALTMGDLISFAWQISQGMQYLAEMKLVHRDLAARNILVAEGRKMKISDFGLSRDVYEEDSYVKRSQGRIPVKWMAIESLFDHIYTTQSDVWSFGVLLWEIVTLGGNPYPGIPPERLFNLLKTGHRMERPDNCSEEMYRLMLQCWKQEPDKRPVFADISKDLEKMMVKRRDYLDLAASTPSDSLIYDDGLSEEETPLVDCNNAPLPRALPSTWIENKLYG
Protocol: (§1) The cellular potency of compounds inhibiting RET kinase were determined in HEK-293 cells expressing a Kif5b-RET fusion protein. Briefly, HEK-293 cells expressing a Kif5b-RET fusion protein were plated at 50K cells/well in 96 well poly-D-Lysine coated plates the day prior to the assay. The cells were incubated for 1 hour with test compound in DMEM (Dulbecco's Modified Eagle Medium) at a final DMSO concentration of 0.5%. […] After 1 hour the media was removed, the cells were fixed with 3.8% formaldehyde for 20 min, washed with PBS, and permeabilized for 10 min with 100% methanol. The plates were then washed with PBS-0.05% Tween20, and blocked with LI-COR Blocking solution (LI-COR Catalog No. 927-40000) for 1 hour. Plates were washed with PBS-0.05% Tween20, then incubated with anti-phospho-RET (Tyr1062) (Santa Cruz Catalog No. sc-20252-R) antibody and anti-GAPDH (Millipore Catalog No. MAB374) antibody for 2 hours. The plates were washed with PBS-0.05% Tween20, and incubated with anti-rabbit 680 (Molecular Probes Catalog No. A21109) and anti-mouse 800 (LI-COR Catalog No. 926-32210) secondary antibodies for 1 hour. All antibodies were diluted in LI-COR Block containing 0.05% Tween. The plates were washed with PBS-0.05% Tween20,100 μL PBS is added to each well, and the plates were read on a LI-COR Aerius fluorescent plate reader. The phospho-RET signal was normalized to the GAPDH signal. […] The POC values were fit to a 4 parameter logistic curve. The IC50 value is the point where the curve crosses 50 POC.

G810R mutant RET kinase = G810R mutant RET kinase (Homo sapiens, UniProt P07949, G810R); assay: biochemical;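 note: HTRF KinEASE-TK enzymatic assay with 1 nM recombinant RET G810R, 1 h at 22 °C, dual-wavelength ratiometric readout, 100% control without compound, 0% from pre-quenched reactions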
Chain of G810R mutant RET kinase (P07949 29-1114 G810R): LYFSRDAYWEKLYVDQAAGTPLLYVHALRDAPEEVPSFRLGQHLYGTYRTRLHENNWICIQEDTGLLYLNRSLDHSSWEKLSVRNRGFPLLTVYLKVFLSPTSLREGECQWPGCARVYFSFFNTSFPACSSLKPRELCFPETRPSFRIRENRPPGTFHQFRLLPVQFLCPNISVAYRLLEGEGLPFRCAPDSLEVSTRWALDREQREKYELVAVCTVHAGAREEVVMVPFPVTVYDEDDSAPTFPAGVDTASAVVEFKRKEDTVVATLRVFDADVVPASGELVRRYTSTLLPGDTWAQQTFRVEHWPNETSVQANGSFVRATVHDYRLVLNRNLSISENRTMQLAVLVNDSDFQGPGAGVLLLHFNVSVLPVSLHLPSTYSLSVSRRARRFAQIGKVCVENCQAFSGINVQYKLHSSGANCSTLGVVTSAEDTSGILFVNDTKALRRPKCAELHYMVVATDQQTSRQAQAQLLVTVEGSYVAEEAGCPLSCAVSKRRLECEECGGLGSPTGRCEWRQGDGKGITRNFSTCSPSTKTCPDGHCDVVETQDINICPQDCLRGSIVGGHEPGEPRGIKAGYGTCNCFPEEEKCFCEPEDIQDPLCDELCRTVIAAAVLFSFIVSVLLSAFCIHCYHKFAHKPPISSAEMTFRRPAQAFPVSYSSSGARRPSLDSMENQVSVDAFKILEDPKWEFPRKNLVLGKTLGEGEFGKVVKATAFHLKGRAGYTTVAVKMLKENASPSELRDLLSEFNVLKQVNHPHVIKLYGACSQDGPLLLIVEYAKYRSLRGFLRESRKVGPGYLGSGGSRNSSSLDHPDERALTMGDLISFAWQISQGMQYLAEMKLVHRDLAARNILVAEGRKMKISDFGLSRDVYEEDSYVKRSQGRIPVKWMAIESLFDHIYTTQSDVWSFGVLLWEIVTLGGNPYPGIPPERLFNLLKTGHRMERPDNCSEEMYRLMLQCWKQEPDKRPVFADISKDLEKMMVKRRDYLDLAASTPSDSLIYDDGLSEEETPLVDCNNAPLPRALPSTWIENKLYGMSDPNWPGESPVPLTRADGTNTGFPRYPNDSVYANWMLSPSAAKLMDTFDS
Protocol: (§2) The potency of compounds inhibiting several different RET kinase forms (Wild Type, V804M, G810R, & G810S) were determined using CisBio's HTRF® KinEASE™-TK assay technology. […] After a 1 hour incubation at 22° C., the extent of reaction was determined using a PerkinElmer EnVision multimode plate reader via HTRF dual wavelength detection, and the percent of control (POC) was calculated using a ratiometric emission factor. One hundred POC was determined using DMSO only samples (no compound present), and 0 POC was determined using pre-quenched control reactions.
The potency of a compound inhibiting G810R or G810S mutant RET kinase was determined using CisBio's HTRF® KinEASE™-TK assay technology. The assays contained G810R or G810S mutant RET produced at Array Biopharma, Inc. (1 nM enzyme). […] After a 1-h incubation at 22° C., the extent of reaction was determined using a PerkinElmer EnVision multimode plate reader via HTRF dual wavelength detection, and the percent of control (POC) was calculated using a ratiometric emission factor. One hundred POC was determined using no test compounds, and 0 POC was determined using pre-quenched control reactions.

G810S mutant RET kinase = G810S mutant RET kinase (Homo sapiens, UniProt P07949, G810S); assay: biochemical;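 note: HTRF KinEASE-TK kinase assay with recombinant enzyme, 1 h at 22 °C, dual-wavelength ratiometric read-out, percent of control (DMSO-only = 100, pre-quenched reaction = 0)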
Chain of G810S mutant RET kinase (P07949 29-1114 G810S): as the sequence (P07949 29-1114 G810R) above, with R782S counted along it

RET kinase V804M = RET kinase V804M (Homo sapiens, UniProt P07949, V804M); assay: RET Enzyme Assay (CisBio HTRF KinEASE-TK), V804M; type: biochemical; conditions: read-out: RET V804M Enz FRET IC50
Chain of RET kinase V804M (P07949 29-1114 V804M): as the sequence (P07949 29-1114 G810R) above, with V776M, R782G counted along it
Protocol: as §2

RET kinase Wild Type = RET kinase Wild Type (Homo sapiens, UniProt P07949); assay: biochemical;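 note: HTRF kinase activity assay on RET enzyme, 1 h reaction at 22 °C, dual-wavelength readout as percent of control, DMSO-only wells as 100%, pre-quenched reactions as 0%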
Chain of RET kinase Wild Type (P07949 29-1114): as the sequence (P07949 29-1114 G810R) above, with R782G counted along it
Protocol: as §2

[2] = target: T2, HEK-293 cells expressing a G810R mutant RET Kif5b-RET fusion protein (Homo sapiens, UniProt P07949, G810R); assay: RET G810R Mutant Cell Assay (phospho-RET Tyr1062); type: cell-based; conditions: HEK-293 Kif5b-RET G810R, 1 hour incubation, phospho-RET normalized to GAPDH
T2 construct: KIF5B (N-terminal portion incl. coiled-coil); expressed in transfected cells; host or cells: HEK-293; the other entry of the earlier key: KIF5B (P33176, Kinesin-1 heavy chain)
T2 sequence (P07949 713-1063 G810R limits assumed): T1 sequence (P07949 713-1063 limits assumed) with G98R
Protocol: as §1, with “expressing a G810R or G810S mutant RET Kif5b-RET fusion” for “expressing a Kif5b-RET fusion”, “μL PBS was added to” for “μL PBS is added to”, “POC values are fit to” for “POC values were fit to”

Row | SMILES | IC50 [1] [nM] | IC50 (G810R mutant RET kinase) [nM] | IC50 (G810S mutant RET kinase) [nM] | IC50 (RET kinase V804M) [nM] | IC50 (RET kinase Wild Type) [nM] | IC50 [2] [nM]
1 | CC(C)n1c2c(c3c(N)ncnc31)-c1cc3ccccc3n1C(=O)NC2 [Example 69, 1-amino-5-isopropyl-6,7-dihydropyrimido[5″,4″:4′,5′]pyrrolo[2′,3′:5,6][1,3]diazepino[1,7-a]indol-8(5H)-one] | 103 | 47 | 65 |  | 34 | 394
2 | Cc1cc2n(n1)C(=O)NCc1c-2c2c(N)ncnc2n1C(C)C [Example 105, 12-amino-8-isopropyl-2-methyl-7,8-dihydropyrazolo[1,5-c]pyrimido[5′,4′:4,5]pyrrolo[3,2-e][1,3]diazepin-5(6H)-one 2,2,2-trifluoroacetate] | 1360 | 742 | 2580 |  | 639 | 15500
3 | CC(C)n1c2c(c3c(N)ncnc31)-c1ccc(C3CC3)cc1C(=O)NC2 [Example 47, 12-amino-3-cyclopropyl-8-isopropyl-7,8-dihydrobenzo[c]pyrimido[5′,4′:4,5]pyrrolo[3,2-e]azepin-5(6H)-one] | 134 | 269 | 303 | 9370 | 112 | 1950
4 | CC(C)n1c2c(c3c(N)ncnc31)-c1noc(C3CC3)c1C=CC2 [Example 30, 3-cyclopropyl-7-isopropyl-6,7-dihydroisoxazolo[4″,3″:6′,7′]cyclohepta[1′,2′:4,5]pyrrolo[2,3-d]pyrimidin-11-amine] | 155 | 180 | 300 | 259 | 93 | 2160
5 | CC(C)n1c2c(c3c(N)ncnc31)-c1noc(C3CC3)c1C(=O)N(Cc1ccccc1)C2 [Example 7, 11-amino-5-benzyl-3-cyclopropyl-7-isopropyl-6,7-dihydroisoxazolo[4,3-c]pyrimido[5′,4′:4,5]pyrrolo[3,2-e]azepin-4(5H)-one] | 135 | 171 | 356 | 340 | 91 | 660
6 | CC(C)n1c2c(c3c(N)ncnc31)-c1noc(C3CC3)c1C(=O)N(CCc1ccccc1)C2 [Example 8, 11-amino-3-cyclopropyl-7-isopropyl-5-phenethyl-6,7-dihydroisoxazolo[4,3-c]pyrimido[5′,4′:4,5]pyrrolo[3,2-e]azepin-4(5H)-one] | 91 | 95 | 123 | 227 | 41 | 302
7 | CC(C)n1c2c(c3c(N)ncnc31)-c1cc3ccccc3n1C(=O)CC2 [Example 68, 1-amino-5-isopropyl-6,7-dihydropyrimido[5″,4″:4′,5′]pyrrolo[3′,2′:3,4]azepino[1,2-a]indol-8(5H)-one] | 1780 | 485 | 1160 |  | 386 | 4750
8 | CC(C)n1c2c(c3c(N)ncnc31)-c1ccc(Cl)cc1C(=O)NC2 [Example 45, 12-amino-3-chloro-8-isopropyl-7,8-dihydrobenzo[c]pyrimido[5′,4′:4,5]pyrrolo[3,2-e]azepin-5(6H)-one] | 344 | 275 | 557 |  | 194 | 814

Now those with a lower IC50 [1], led by results:

Row | IC50 [1] [nM] | IC50 (G810R mutant RET kinase) [nM] | IC50 (G810S mutant RET kinase) [nM] | IC50 (RET kinase V804M) [nM] | IC50 (RET kinase Wild Type) [nM] | IC50 [2] [nM] | SMILES
9 | 35 | 124 | 110 | 114 | 47 | 831 | CC(C)n1c2c(c3c(N)ncnc31)-c1noc(C3CC3)c1CN(S(C)(=O)=O)C2 [Example 35, 3-cyclopropyl-7-isopropyl-5-(methylsulfonyl)-4,5,6,7-tetrahydroisoxazolo[4,3-c]pyrimido[5′,4′:4,5]pyrrolo[3,2-e]azepin-11-amine 2,2,2-trifluoroacetate]
10 | 64 | 102 | 94 | 34 | 16 | 485 | COC1CCc2c(c3c(N)ncnc3n2C(C)C)-c2noc(C3CC3)c21 (racemic) [Example 53, 3-cyclopropyl-7-isopropyl-4-methoxy-4,5,6,7-tetrahydroisoxazolo[4″,3″:6′,7′]cyclohepta[1′,2′:4,5]pyrrolo[2,3-d]pyrimidin-11-amine]
11 | 60 | 157 | 135 | 106 | 16 | 290 | CCCN1Cc2c(c3c(N)ncnc3n2C(C)C)-c2noc(C3CC3)c2C1=O [Example 4]
12 | 65 | 102 | 75 | 323 | 31 | 496 | CC(C)n1c2c(c3c(N)ncnc31)-c1noc(C3CC3)c1S(=O)(=O)N(C)C2 [Example 22, 11-amino-3-cyclopropyl-7-isopropyl-5-methyl-6,7-dihydro-5H-isoxazolo[3,4-f]pyrimido[5′,4′:4,5]pyrrolo[2,3-d][1,2]thiazepine 4,4-dioxide]
13 | 75 | 157 | 138 | 99 | 17 | 459 | CC(C)n1c2c(c3c(N)ncnc31)-c1noc(C3CC3)c1C(=O)N(CC1CC1)C2 [Example 5, 11-amino-3-cyclopropyl-5-(cyclopropylmethyl)-7-isopropyl-6,7-dihydroisoxazolo[4,3-c]pyrimido[5′,4′:4,5]pyrrolo[3,2-e]azepin-4(5H)-one]
14 | 40 | 70 | 87 | 92 | 25 | 181 | CC(C)n1c2c(c3c(N)ncnc31)-c1noc(C3CC3)c1C(=O)OC2 [Example 24, 11-amino-3-cyclopropyl-7-isopropyl-6,7-dihydro-4H-isoxazolo[3″,4″:5′,6′]oxepino[4′,3′:4,5]pyrrolo[2,3-d]pyrimidin-4-one]
